Paper PMC4180036 (Clinical pharmacology and therapeutics, 2014)
Several values for one entry are separate records, joined by “and”; a condition that tells them apart may be missing. Equal entries are not always repeated. Where two headings read alike, the source gives them in different places. Each block holds one compound with its values, some of them ahead of it.

What was measured:
[1] = Population pharmacokinetic modeling and covariate analysis; format: in vivo, human; conditions: for IIV V1, inter-individual variability on volume of distribution / IIVCL, inter-individual variability on clearance / IOV CL, inter-occasion variability on clearance: expressed as variance; for θKa, first-order absorption rate constant: fixed value; for clearance / Vd: human, plasma, oral; for Vd: θV1, volume of distribution
[2] = in vivo
[3] = system: African Americans with NSCLC; assay: Treatment-related toxicities; format: in vivo, human; conditions: for Dermatologic, other than rash: Any, grade 1–3: erythema, hyperpigmentation, pruritus, xerodermia; for Nausea, grade 1–3: only one grade three nausea was recorded
[4] = other studies; cited from earlier work
NSCLC = assay: Efficacy: disease control rate at 3 months; format: in vivo, human
clinical = conditions: human, in vivo
NSCLC patients = conditions: 150 mg erlotinib, cited from earlier work
[5] = Base model (n=26), Bootstrap median (95% CI)
[6] = Base model (n=26), Estimate (CV %)
[7] = Covariate model (LBM, n=26), Bootstrap median (95% CI)
[8] = Covariate model (LBM, n=26), Estimate (CV %)

θCLM, metabolite clearance [1, 5]: 23.60 (4.76, 47.91) L/h
θV2, metabolite volume of distribution [1, 5]: 7.67 (0.09, 21.91) L
θCLM, metabolite clearance [1, 6]: 21.5 (8.9) L/h
θV2, metabolite volume of distribution [1, 6]: 7.18 (62.8) L
θCLM, metabolite clearance [1, 7]: 27.80 (4.04, 55.60) L/h
θV2, metabolite volume of distribution [1, 7]: 8.99 (0.04, 26.11) L
θCLM, metabolite clearance [1, 8]: 32.6 (10.4) L/h
θV2, metabolite volume of distribution [1, 8]: 11.6 (12.1) L
measurable OSI-420 in plasma [2]: no measureable OSI-420
SMILES: C#Cc1cccc(Nc2ncnc3cc(OCCOC)c(OCCO)cc23)c1 [OSI-420]
OSI-420 detection in plasma [2]: ƛ OSI-420 was undetectable in one patient treated on Arm B

SMILES: C#Cc1cccc(Nc2ncnc3cc(OCCOC)c(OCCOC)cc23)c1 [erlotinib]
θFM (fraction of erlotinib converted to OSI-420, FMET=1/1+exp(FM)) [1, 5]: 1.22 (0.47, 3.33)
IIV V1, inter-individual variability on volume of distribution [1, 5]: 0.90 (0.40, 1.33)
IIVCL, inter-individual variability on clearance [1, 5]: 0.24 (0.005, 0.44)
IOV CL, inter-occasion variability on clearance [1, 5]: 0.58 (0.29, 0.89)
θFM (fraction of erlotinib converted to OSI-420, FMET=1/1+exp(FM)) [1, 6]: 1.41 (12.8)
IIV V1, inter-individual variability on volume of distribution [1, 6]: 0.92 (50.5)
IIVCL, inter-individual variability on clearance [1, 6]: 0.06 (80.8)
IOV CL, inter-occasion variability on clearance [1, 6]: 0.38 (55.5)
θKa, first-order absorption rate constant ([1]; Base model (n=26)): 1.04 h⁻¹
θFM (fraction of erlotinib converted to OSI-420, FMET=1/1+exp(FM)) [1, 7]: 1.03 (0.23, 3.49)
θLBM, lean body mass covariate term [1, 7]: 1.75 (0.69, 3.08)
IIV V1, inter-individual variability on volume of distribution [1, 7]: 0.92 (0.43, 1.37)
IIVCL, inter-individual variability on clearance [1, 7]: 0.13 and 0.13 (0.001, 0.35)
IOV CL, inter-occasion variability on clearance [1, 7]: 0.51 (0.15, 0.85)
θFM (fraction of erlotinib converted to OSI-420, FMET=1/1+exp(FM)) [1, 8]: 0.88 (26.4)
θLBM, lean body mass covariate term [1, 8]: 1.71 (27.8)
IIV V1, inter-individual variability on volume of distribution [1, 8]: 0.95 (50.7)
IIVCL, inter-individual variability on clearance [1, 8]: 0.02 (127.1)
IOV CL, inter-occasion variability on clearance [1, 8]: 0.30 (67.9)
θKa, first-order absorption rate constant ([1]; Covariate model (LBM, n=26)): 1.04 h⁻¹
clearance ([1]; both, θCL, erlotinib clearance, Base model (n=26), Bootstrap median (95% CI)): 104 mL/min
clearance ([1]; both, θCL, erlotinib clearance, Base model (n=26), Estimate (CV %)): 104 mL/min
clearance ([1]; both, θCL, erlotinib clearance, Covariate model (LBM, n=26), Bootstrap median (95% CI)): 106 mL/min
clearance ([1]; both, θCL, erlotinib clearance, Covariate model (LBM, n=26), Estimate (CV %)): 107 mL/min
Vd ([1]; both, Base model (n=26), Bootstrap median (95% CI)): 275 L
Vd ([1]; both, Base model (n=26), Estimate (CV %)): 284 L
Vd ([1]; both, Covariate model (LBM, n=26), Estimate (CV %)): 283 L
clearance ([1]; estimated erlotinib clearance from nonlinear mixed-effects modeling, this study): 104 mL/min
AUC0–24 ([2]; human): 17.4 ± 8.9 mg·h/L
Tmax ([2]; human): 2.5 (0–10) hrs
AST elevation ([3]; All, n=55): 4 (7) no. of pts (%)
Anorexia, grade 1–2 ([3]; All, n=55): 14 (25) no. of pts (%)
Anorexia, grade 3 ([3]; All, n=55): 3 (5) no. of pts (%)
Any grade 3+ toxicity ([3]; All, n=55): 11 (20) no. of pts (%)
Any grade 4/5 toxicity ([3]; All, n=55): 1 (2) no. of pts (%)
Dehydration, grade 1–2 ([3]; All, n=55): 1 (2) no. of pts (%)
Dehydration, grade 3 ([3]; All, n=55): 2 (4) no. of pts (%)
Diarrhea: Any grade ([3]; All, n=55): 16 (29) no. of pts (%)
Diarrhea: Grade 1 ([3]; All, n=55): 14 (25) no. of pts (%)
Diarrhea: Grade 2 ([3]; All, n=55): 2 (4) no. of pts (%)
Diarrhea: Grade 3+ ([3]; All, n=55): 0 no. of pts (%)
Hyperbilirubinemia ([3]; All, n=55): 1 (2) no. of pts (%)
Pneumonitis, grade 3 ([3]; All, n=55): 1 (2) no. of pts (%)
Rash, maximum grade: Any grade ([3]; All, n=55): 38 (69) no. of pts (%)
Rash, maximum grade: Grade 1 ([3]; All, n=55): 22 (40) no. of pts (%)
Rash, maximum grade: Grade 2 ([3]; All, n=55): 12 (22) no. of pts (%)
Rash, maximum grade: Grade 3 ([3]; All, n=55): 4 (7) no. of pts (%)
Xerostomia ([3]; All, n=55): 2 (4) no. of pts (%)
Dermatologic, other than rash: Any, grade 1–3 ([3]; All, n=55): 16 (29) no. of pts (%)
Nausea, grade 1–3 ([3]; All, n=55): 8 (15) no. of pts (%)
AST elevation ([3]; Arm A (fixed dose), n=28): 4 (14) no. of pts (%)
Anorexia, grade 1–2 ([3]; Arm A (fixed dose), n=28): 5 (18) no. of pts (%)
Anorexia, grade 3 ([3]; Arm A (fixed dose), n=28): 2 (7) no. of pts (%)
Any grade 3+ toxicity ([3]; Arm A (fixed dose), n=28): 5 (18) no. of pts (%)
Any grade 4/5 toxicity ([3]; Arm A (fixed dose), n=28): 1 (4) no. of pts (%)
Dehydration, grade 1–2 ([3]; Arm A (fixed dose), n=28): 0 no. of pts (%)
Dehydration, grade 3 ([3]; Arm A (fixed dose), n=28): 1 (4) no. of pts (%)
Diarrhea: Any grade ([3]; Arm A (fixed dose), n=28): 9 (32) no. of pts (%)
Diarrhea: Grade 1 ([3]; Arm A (fixed dose), n=28): 7 (25) no. of pts (%)
Diarrhea: Grade 2 ([3]; Arm A (fixed dose), n=28): 2 (7) no. of pts (%)
Diarrhea: Grade 3+ ([3]; Arm A (fixed dose), n=28): 0 no. of pts (%)
Hyperbilirubinemia ([3]; Arm A (fixed dose), n=28): 0 no. of pts (%)
Pneumonitis, grade 3 ([3]; Arm A (fixed dose), n=28): 1 (4) no. of pts (%)
Rash, maximum grade: Any grade ([3]; Arm A (fixed dose), n=28): 19 (68) no. of pts (%)
Rash, maximum grade: Grade 1 ([3]; Arm A (fixed dose), n=28): 12 (43) no. of pts (%)
Rash, maximum grade: Grade 2 ([3]; Arm A (fixed dose), n=28): 7 (25) no. of pts (%)
Rash, maximum grade: Grade 3 ([3]; Arm A (fixed dose), n=28): 0 no. of pts (%)
Xerostomia ([3]; Arm A (fixed dose), n=28): 0 no. of pts (%)
Dermatologic, other than rash: Any, grade 1–3 ([3]; Arm A (fixed dose), n=28): 7 (25) no. of pts (%)
Nausea, grade 1–3 ([3]; Arm A (fixed dose), n=28): 2 (7) no. of pts (%)
AST elevation ([3]; Arm B (dose adjusted), n=27): 0 no. of pts (%)
Anorexia, grade 1–2 ([3]; Arm B (dose adjusted), n=27): 9 (33) no. of pts (%)
Anorexia, grade 3 ([3]; Arm B (dose adjusted), n=27): 1 (4) no. of pts (%)
Any grade 3+ toxicity ([3]; Arm B (dose adjusted), n=27): 6 (22) no. of pts (%)
Any grade 4/5 toxicity ([3]; Arm B (dose adjusted), n=27): 0 no. of pts (%)
Dehydration, grade 1–2 ([3]; Arm B (dose adjusted), n=27): 1 (4) no. of pts (%)
Dehydration, grade 3 ([3]; Arm B (dose adjusted), n=27): 1 (4) no. of pts (%)
Diarrhea: Any grade ([3]; Arm B (dose adjusted), n=27): 7 (26) no. of pts (%)
Diarrhea: Grade 1 ([3]; Arm B (dose adjusted), n=27): 7 (26) no. of pts (%)
Diarrhea: Grade 2 ([3]; Arm B (dose adjusted), n=27): 0 no. of pts (%)
Diarrhea: Grade 3+ ([3]; Arm B (dose adjusted), n=27): 0 no. of pts (%)
Hyperbilirubinemia ([3]; Arm B (dose adjusted), n=27): 1 (4) no. of pts (%)
Pneumonitis, grade 3 ([3]; Arm B (dose adjusted), n=27): 0 no. of pts (%)
Rash, maximum grade: Any grade ([3]; Arm B (dose adjusted), n=27): 19 (70) no. of pts (%)
Rash, maximum grade: Grade 1 ([3]; Arm B (dose adjusted), n=27): 10 (37) no. of pts (%)
Rash, maximum grade: Grade 2 ([3]; Arm B (dose adjusted), n=27): 5 (19) no. of pts (%)
Rash, maximum grade: Grade 3 ([3]; Arm B (dose adjusted), n=27): 4 (15) no. of pts (%)
Xerostomia ([3]; Arm B (dose adjusted), n=27): 2 (7) no. of pts (%)
Dermatologic, other than rash: Any, grade 1–3 ([3]; Arm B (dose adjusted), n=27): 9 (33) no. of pts (%)
Nausea, grade 1–3 ([3]; Arm B (dose adjusted), n=27): 6 (22) no. of pts (%)
patients who experienced rash during the first cycle ([3]; Arm B, of the 27 enrolled patients): 18 patients
diarrhea, % of patients ([3]; all 55 treated patients): 29%
dose reductions for toxicity ([3]; all 55 treated patients): no dose reductions for toxicity
nausea, % of patients ([3]; all 55 treated patients): 15%
patients who experienced any grade 3 toxicity ([3]; all 55 treated patients (11 patients)): 20%
range of population estimates for CL/F [4]: 3.29 to 5.82 L/h
PD (NSCLC; All, n=52 evaluable patients): 40 (78) Number of patients (%)
PR (NSCLC; All, n=52 evaluable patients): 1 (2) Number of patients (%)
1 year progression free rate (NSCLC; All, n=55 treated patients): 7%
1 year survival rate (NSCLC; All, n=55 treated patients): 28%
Survival, Median (NSCLC; All, n=55 treated patients): 5.3 months
Survival, Range (NSCLC; All, n=55 treated patients): 0.9–42.8 months
TTP, Median (95% CI) (NSCLC; All, n=55 treated patients): 2.6 (1.9– 2.8) months
TTP, Range (NSCLC; All, n=55 treated patients): 0.3–20.2 months
DCR at 3 months (NSCLC; Arm A, n=26 evaluable patients): 6 (23) Number of patients (%)
PD (NSCLC; Arm A, n=26 evaluable patients): 20 (77) Number of patients (%)
PR (NSCLC; Arm A, n=26 evaluable patients): 1 (4) Number of patients (%)
1 year progression free rate (NSCLC; Arm A, n=28): 10%
1 year survival rate (NSCLC; Arm A, n=28): 30%
Survival, Median (NSCLC; Arm A, n=28): 5.3 months
Survival, Range (NSCLC; Arm A, n=28): 0.9–37.4 months
TTP, Median (95% CI) (NSCLC; Arm A, n=28): 2.8 (2.5–3.1) months
TTP, Range (NSCLC; Arm A, n=28): 0.6–14.4 months
DCR at 3 months (NSCLC; Arm B, n=26 evaluable patients): 6 (23) Number of patients (%)
PD (NSCLC; Arm B, n=26 evaluable patients): 20 (77) Number of patients (%)
PR (NSCLC; Arm B, n=26 evaluable patients): 0 Number of patients (%)
1 year progression free rate (NSCLC; Arm B, n=27): 4%
1 year survival rate (NSCLC; Arm B, n=27): 26%
Survival, Median (NSCLC; Arm B, n=27): 5.2 months
Survival, Range (NSCLC; Arm B, n=27): 1.3–42.8 months
TTP, Median (95% CI) (NSCLC; Arm B, n=27): 2.4 (1.5–2.7) months
TTP, Range (NSCLC; Arm B, n=27): 0.3–20.2 months
AUC(0-t) (clinical; AUC0–24): 12200 ± 6200 ng·h/mL
Tmax (clinical; Tmax): 5 h
dose reductions due to adverse events (NSCLC patients; 81 Caucasian NSCLC patients): 14%
dose reductions due to adverse events (NSCLC patients; 1242 Asian NSCLC patients): 23%
